Results published in US4505929A, “Sulfur-substituted diphenyl ethers having antiviral activity” (The Dow Chemical Company, priority 1982, dated 1985).
In brackets after ≈: the same amount, converted by molar mass.

Tests used:
Acute toxicity in rats = details: rat, in vivo
rhinovirus type 13 = experiment: Inhibition of cytopathic effect in Wl-38 cells, type 13; assay type: cell-based; details: Enterovirus, WI-38, 25 μg/ml, Wl-38 human embryonic lung cells, read-out: inhibition grade
Protocol: (§1) Solutions of 4-(4-(methylsulfonyl)phenoxy)-1,2-dichlorobenzene were prepared by dissolving 5 milligrams of the compound in 0.1 ml dimethyl sulfoxide and incubating at 56° C. for at least 15 minutes. This solution was added to 0.9 ml of warmed (56° C.) maintenance medium (49% Eagles, 49% medium 199, 2% fetal calf serum and antibiotics), and the resulting 1.0 ml was then added to 9 ml of warmed (56° C.) maintenance medium. From this solution the final concentrations of 100, 50, 25, or 12.5 μg/ml were made up with maintenance medium.
(§2) Triplicate cell culture tubes (Wl-38 human embryonic lung cell culture tubes) were fed with 1 ml of medium containing the compound at specified concentrations and inoculated with 3-300 TCID50 (3-300 times the tissue culture infective dose 50, i.e., the dose required to infect 50% of the cell cultures tested. Simultaneous viral titrations were performed. The tissue cultures were supplemented with fresh medium when necessary (around 3-4 days) until viral titrations were completed.
(§3) The cell culture tubes were examined daily for cytopathic effect. […] Comparisons were made at that time with the percentage of cell sheet destruction in tubes containing virus compound mixtures. Observed differences of 75% or more were graded "+", 74-50% as "±", and less than 50% as "-" inhibition.

Cox A21 = experiment: Single Oral Dose test in Cox A21 infected mice; assay type: in vivo, Swiss male mice
Protocol: In addition, some of the compounds were tested in animals utilizing the following procedure, hereinafter referred to as the "Single Oral Dose" test. Swiss male mice, 10-12 grams in weight were challenged intraperitoneally (IP) with 0.2 ml of a normally lethal dose, i.e. a virus dose sufficient to cause .congruent.80-100% mortality in infected animals within 10 days of challenge of Cox A21, in phosphate buffered saline containing 1% heat inactivated fetal calf serum. Three hours later mice were treated orally (P.O.) with 0.2 ml of compound suspended in 0.5% hydroxypropyl methylcellulose (Methocel) or with 0.2 ml of 0.5% Methocel containing no compound. […] Mice were observed daily for 7-10 days post-challenge and deaths recorded. A modified Mantel-Haenzel combined chi-square procedure was used to determine significant difference between virus control and treated groups. Chi-square values greater than 3.84 are considered significant (95% confidence level) in this test.

rhinovirus type 56 = experiment: Inhibition of cytopathic effect in Wl-38 cells, type 56; assay type: cell-based; details: Enterovirus, WI-38, 25 μg/ml, Wl-38 human embryonic lung cells, read-out: inhibition grade
Protocol: as §1, §2, §3

rhinovirus type 29 = experiment: Inhibition of cytopathic effect in Wl-38 cells, type 29; assay type: cell-based; details: Enterovirus, WI-38, 25 μg/ml, Wl-38 human embryonic lung cells, read-out: inhibition grade
Protocol: as §1, §2, §3

rhinovirus type 59 = experiment: Inhibition of cytopathic effect in Wl-38 cells, type 59; assay type: cell-based; details: Enterovirus, WI-38, 25 μg/ml, Wl-38 human embryonic lung cells, read-out: inhibition grade
Protocol: as §1, §2, §3

rhinovirus type 8 = experiment: Inhibition of cytopathic effect in Wl-38 cells, type 8; assay type: cell-based; details: Enterovirus, WI-38, 25 μg/ml, Wl-38 human embryonic lung cells, read-out: inhibition grade
Protocol: as §1, §2, §3

[1] = tested on: rhinovirus type 1A (RV-1A); experiment: Tissue culture antiviral test (HeLa cells), RV-1A; assay type: cell-based; details: Enterovirus, 48 and 72 hours post-treatment, read-out: Lowest concentration necessary to cause a 50 percent reduction in cytopathic effect, RV-1A
Protocol: (§4) Monolayered HeLa cells in 16 millimeter (mm) tissue culture dishes were treated with 1 ml of culture medium (Eagles medium supplemented with fetal calf serum) containing subject compound at an appropriate concentration or containing no compound at all. Culture media such as those described herein are more fully described in standard texts, as for example, Kuchler's Biochemical Methods in Cell Culture and Virology, Dowden, Hutchinson and Ross, Inc., Stroudsberg, PA (1977). Following treatment, cells were challenged with 0.05 ml of rhinovirus type 1A (RV-1A), rhinovirus type 2 (RV-2) or Coxsackie A21 virus (Cox A21) in culture medium. Some of the compounds were also tested against rhinovirus type 5 (RV-5), rhinovirus type 8 (RV-8) or rhinovirus type 64 (RV-64). Cell controls received no viruses.
(§5) ^xx Lowest concentration of the compound (μg/ml) necessary to caus
(§6) a 50 percent reduction in cytopathic effect.

rhinovirus type 4 = experiment: Inhibition of cytopathic effect in Wl-38 cells, type 4; assay type: cell-based; details: Enterovirus, WI-38, 25 μg/ml, Wl-38 human embryonic lung cells, read-out: inhibition grade
Protocol: as §1, §2, §3

[2] = Cytotoxicity to HeLa cells in tissue culture testing; assay type: cell-based; details: human, G.I. = growth inhibition: at the concentration shown the compound inhibited growth of the tissue culture, read-out: Cytotoxicity (G.I.)
Protocol: as §4
^x Cytotoxicity figures represent the concentration of the compound,
micrograms/milliliter (μg/ml) found to be toxic to the cell.
means "approximately "; "<<" "considerably less than " and "G.I." means

rhinovirus type 64 = experiment: Inhibition of cytopathic effect in Wl-38 cells, type 64; assay type: cell-based; details: Enterovirus, WI-38, 25 μg/ml, Wl-38 human embryonic lung cells, read-out: inhibition grade
Protocol: as §1, §2, §3

rhinovirus type 10 = experiment: Inhibition of cytopathic effect in Wl-38 cells, type 10; assay type: cell-based; details: Enterovirus, WI-38, 25 μg/ml, Wl-38 human embryonic lung cells, read-out: inhibition grade
Protocol: as §1, §2, §3

rhinovirus type 6 = experiment: Inhibition of cytopathic effect in Wl-38 cells, type 6; assay type: cell-based; details: Enterovirus, WI-38, 25 μg/ml, Wl-38 human embryonic lung cells, read-out: inhibition grade
Protocol: as §1, §2, §3

rhinovirus type 60 = experiment: Inhibition of cytopathic effect in Wl-38 cells, type 60; assay type: cell-based; details: Enterovirus, WI-38, 25 μg/ml, Wl-38 human embryonic lung cells, read-out: inhibition grade
Protocol: as §1, §2, §3

rhinovirus type 74 = experiment: Inhibition of cytopathic effect in Wl-38 cells, type 74; assay type: cell-based; details: Enterovirus, WI-38, 25 μg/ml, Wl-38 human embryonic lung cells, read-out: inhibition grade
Protocol: as §1, §2, §3

rhinovirus type 58 = experiment: Inhibition of cytopathic effect in Wl-38 cells, type 58; assay type: cell-based; details: Enterovirus, WI-38, 25 μg/ml, Wl-38 human embryonic lung cells, read-out: inhibition grade
Protocol: as §1, §2, §3

Picornaviruses = experiment: Antiviral effectiveness against picornaviruses, overall; assay type: cell-based
Protocol: as §4
Solutions of 4-(4-(methylsulfonyl)phenoxy)-1,2-dichlorobenzene were prepared by dissolving 5 milligrams of the compound in 0.1 ml dimethyl sulfoxide and incubating at 56° C. for at least 15 minutes. This solution was added to 0.9 ml of warmed (56° C.) maintenance medium (49% Eagles, 49% medium 199, 2% fetal calf serum and antibiotics), and the resulting 1.0 ml was then added to 9 ml of warmed (56° C.) maintenance medium. From this solution the final concentrations of 100, 50, 25, or 12.5 μg/ml were made up with maintenance medium. […]

[3] = tested on: Hank's (untyped) rhinovirus; experiment: Inhibition of cytopathic effect in Wl-38 cells, Hank's (untyped); assay type: cell-based; details: Enterovirus, WI-38, 25 μg/ml, Wl-38 human embryonic lung cells, read-out: inhibition grade
Protocol: as §1, §2, §3

rhinovirus type 2 (RV-2) = experiment: Tissue culture antiviral test (HeLa cells), RV-2; assay type: cell-based; details: Enterovirus, 48 and 72 hours post-treatment, read-out: Lowest concentration necessary to cause a 50 percent reduction in cytopathic effect, RV-2
Protocol: as §4, §5, §6

[4] = Acute oral toxicity in beagle dogs; details: dog, in vivo
[5] = tested on: Coxsackie A21 virus (Cox A21); experiment: Tissue culture antiviral test (HeLa cells), Cox A21; assay type: cell-based; details: 48 and 72 hours post-treatment, read-out: Lowest concentration necessary to cause a 50 percent reduction in cytopathic effect, Cox A21
Protocol: as §4, §5, §6

rhinovirus type 39 = experiment: Inhibition of cytopathic effect in Wl-38 cells, type 39; assay type: cell-based; details: Enterovirus, WI-38, 25 μg/ml, Wl-38 human embryonic lung cells, read-out: inhibition grade
Protocol: as §1, §2, §3

[6] = tested on: rhinovirus type 64 (RV-64); experiment: Tissue culture antiviral test (HeLa cells), RV-64; assay type: cell-based; details: Enterovirus, 48 and 72 hours post-treatment, read-out: Lowest concentration necessary to cause a 50 percent reduction in cytopathic effect, RV-64
Protocol: as §4, §5, §6

rhinovirus type 75 = experiment: Inhibition of cytopathic effect in Wl-38 cells, type 75; assay type: cell-based; details: Enterovirus, WI-38, 25 μg/ml, Wl-38 human embryonic lung cells, read-out: inhibition grade
Protocol: as §1, §2, §3

rhinovirus type 21 = experiment: Inhibition of cytopathic effect in Wl-38 cells, type 21; assay type: cell-based; details: Enterovirus, WI-38, 25 μg/ml, Wl-38 human embryonic lung cells, read-out: inhibition grade
Protocol: as §1, §2, §3

rhinovirus type 8 (RV-8) = experiment: Tissue culture antiviral test (HeLa cells), RV-8; assay type: cell-based; details: Enterovirus, 48 and 72 hours post-treatment, read-out: Lowest concentration necessary to cause a 50 percent reduction in cytopathic effect, RV-8
Protocol: as §4, §5, §6

Coxsackie A21 virus = experiment: Continuous Oral Feeding test in Coxsackie A21 infected mice; assay type: in vivo; details: in diet
Protocol: Some of the compounds were also tested in animals utilizing the following procedure, hereinafter referred to as the "Continuous Oral Feeding" test. Coxsackie A21 virus grown on HeLa cells was administered at a concentration that produces 80 to 100% deaths in mice weighing 10 to 11 grams within 10 days, when the mice are injected (IP) with 0.2 ml of virus preparation. Mice were placed on diets containing test compound dispersed in plain commercially available rodent mash chow at a concentration of 0.05% (weight percent) on day 0. On day 1 the mice were challenged with the virus preparation, 0.2 ml/mouse, (IP). Deaths in both control and experimental groups were recorded for the 10 days and the results analyzed by a chi-square (X^2) test. Chi-square values greater than 3.84 indicate the compound is active (95% confidence level).
^xxx Percent (by weight) of test compound in the diet fed to test

rhinovirus type 19 = experiment: Inhibition of cytopathic effect in Wl-38 cells, type 19; assay type: cell-based; details: Enterovirus, WI-38, 25 μg/ml, Wl-38 human embryonic lung cells, read-out: inhibition grade
Protocol: as §1, §2, §3

rhinovirus type 17 = experiment: Inhibition of cytopathic effect in Wl-38 cells, type 17; assay type: cell-based; details: Enterovirus, WI-38, 25 μg/ml, Wl-38 human embryonic lung cells, read-out: inhibition grade
Protocol: as §1, §2, §3

rhinovirus type 68 = experiment: Inhibition of cytopathic effect in Wl-38 cells, type 68; assay type: cell-based; details: Enterovirus, WI-38, 25 μg/ml, Wl-38 human embryonic lung cells, read-out: inhibition grade
Protocol: as §1, §2, §3

rhinovirus type 81 = experiment: Inhibition of cytopathic effect in Wl-38 cells, type 81; assay type: cell-based; details: Enterovirus, WI-38, 25 μg/ml, Wl-38 human embryonic lung cells, read-out: inhibition grade
Protocol: as §1, §2, §3

CS(=O)(=O)c1ccc(Oc2ccc(Cl)c(Cl)c2)cc1 [Example 1, 4-(4-(Methylsulfonyl)phenoxy)-1,2-dichlorobenzene]
LD50 (Acute toxicity in rats; ip, intraperitoneal, read-out: acute toxicity, intraperitoneal administration): > 1000 mg/kg
LD50 (Acute toxicity in rats; oral, read-out: acute oral toxicity): > 2000 mg/kg
inhibition at 25 µg/mL (rhinovirus type 13): ≥ 75%
antiviral activity in Single Oral Dose test (Cox A21): exhibited antiviral activity
inhibition at 25 µg/mL (rhinovirus type 56): ≥ 75%
inhibition at 25 µg/mL (rhinovirus type 29): ≥ 75%
inhibition at 25 µg/mL (rhinovirus type 59): ≥ 75%
inhibition at 25 µg/mL (rhinovirus type 8): < 50%
EC50 [1]: 0.25 µg/mL (≈ 0.788 µM)
inhibition at 25 µg/mL (rhinovirus type 4): ≥ 75%
MCC [2]: 50 to 100 µg/mL
inhibition at 25 µg/mL (rhinovirus type 64): ≥ 75%
inhibition at 25 µg/mL (rhinovirus type 10): ≥ 75%
inhibition at 25 µg/mL (rhinovirus type 6): ≥ 75%
inhibition at 25 µg/mL (rhinovirus type 60): ≥ 75%
inhibition at 25 µg/mL (rhinovirus type 74): ≥ 75%
inhibition at 25 µg/mL (rhinovirus type 58): ≥ 75%
effectiveness against Picornaviruses (Picornaviruses): particularly effective against Picornaviruses
inhibition at 25 µg/mL [3]: ≥ 75%
EC50 (rhinovirus type 2 (RV-2)): 0.25 µg/mL (≈ 0.788 µM)
LD50 [4]: > 2000 mg/kg
EC50 [5]: 2.5 µg/mL (≈ 7.88 µM)
inhibition at 25 µg/mL (rhinovirus type 39): ≥ 75%
EC50 [6]: 0.25 µg/mL (≈ 0.788 µM)
inhibition at 25 µg/mL (rhinovirus type 75): < 50%
inhibition at 25 µg/mL (rhinovirus type 21): ≥ 75%
EC50 (rhinovirus type 8 (RV-8)): ~50 µg/mL (≈ 158 µM)
antiviral activity in Continuous Oral Feeding test (Coxsackie A21 virus): exhibited antiviral activity
inhibition at 25 µg/mL (rhinovirus type 19): ≥ 75%
inhibition at 25 µg/mL (rhinovirus type 17): ≥ 75%
inhibition at 25 µg/mL (rhinovirus type 68): 50 to 74%
inhibition at 25 µg/mL (rhinovirus type 81): ≥ 75%
